Source: ChEMBL document CHEMBL1152061, “New cytostatic agents obtained by molecular topology” (Bioorg Med Chem Lett, 1996)

Tests used:
[1] = system: HeLa; test: Compound was evaluated for the cytotoxicity against human cervix epithelioid carcinoma, HeLa (ATCC CCL2).; type: functional
[2] = system: HepG2; test: Compound was evaluated for the cytotoxicity against human hepatocellular carcinoma, HepG2 (ATCC HB8065); type: functional
[3] = Compound was evaluated for the cytotoxicity against human ocular lens epithelium (CECH).; type: functional, Lens of camera-type eye
[4] = system: HepG2; test: Compound was evaluated for the inhibition of cell proliferation of human hepatocellular carcinoma, HepG2 (ATCC HB8065).; type: functional, cell-based
[5] = system: HeLa; test: Compound was evaluated for the inhibition of cell proliferation of human cervix epithelioid carcinoma, HeLa (ATCC CCL2).; type: functional, cell-based
[6] = Cytotoxicity ratio for Human hepatocellular carcinoma, HepG2 (ATCC HB 8065) cells; type: functional
[7] = Compound was evaluated for the inhibition of cell proliferation of human ocular lens epithelium (CECH).; type: functional, tissue-based; settings: Lens of camera-type eye
[8] = system: HeLa; test: Compound was evaluated for the cytotoxicity against human cervix epithelioid carcinoma, HeLa (ATCC CCL2); type: functional

Structure (SMILES): CNC(C)C1CCC(N)C(OC2C(N)CC(N)C(OC3OCC(C)(O)C(NC)C3O)C2O)O1.CNC1C(O)C(OC2C(N)CC(N)C(OC3OC(C(C)N)CCC3N)C2O)OCC1(C)O.CNC1C(O)C(OC2C(N)CC(N)C(OC3OC(CN)CCC3N)C2O)OCC1(C)O.O=S(=O)(O)O (stereo unspecified) [GENTAMICIN MIXTURE]
- MNTC [1]: >1050 µM
- MNTC [2]: 210 µM
- MNTC [3]: 210 µM

Structure (SMILES): CCn1cc(C(=O)O)c(=O)c2cnc(N3CCCC3)nc21 [PIROMIDIC ACID]
- IC50 [4]: 110 µM
- MNTC [1]: 100 µM
- IC50 [5]: 97 µM
- MNTC [2]: 120 µM
- Ratio [6]: 1.67
- IC50 [7]: 184 µM
- MNTC [3]: 250 µM

Structure (SMILES): CO[C@@]12[C@H](COC(N)=O)C3=C(C(=O)C(C)=C(N)C3=O)N1C[C@@H]1N[C@@H]12 [MITOMYCIN]
- IC50 [4]: 0.27 µM
- MNTC [1]: 2 µM
- MNTC [2]: 0.7 µM
- Ratio [6]: 0.33
- IC50 [7]: 0.09 µM

Structure (SMILES): C[C@H]1c2cccc(O)c2C(=O)C2=C(O)[C@]3(O)C(=O)C(C(N)=O)=C(O)[C@@H](N(C)C)[C@@H]3[C@@H](O)[C@@H]21.O [DOXYCYCLINE]
- IC50 [4]: 53 µM
- MNTC [1]: 40 µM
- IC50 [5]: 30 µM
- MNTC [2]: 60 µM
- Ratio [6]: 0.66
- IC50 [7]: 35 µM
- MNTC [3]: 60 µM

Structure (SMILES): CN(C)[C@@H]1C(O)=C(C(N)=O)C(=O)[C@@]2(O)C(O)=C3C(=O)c4c(O)cccc4[C@@](C)(O)[C@H]3C[C@@H]12 [TETRACYCLINE]
- IC50 [4]: 128 µM
- IC50 [5]: 51 µM
- Ratio [6]: 1.62
- IC50 [7]: 207 µM

Structure (SMILES): CCC[C@@H]1C[C@@H](C(=O)N[C@@H]([C@H]2O[C@H](SC)[C@H](O)[C@@H](O)[C@H]2O)[C@H](C)Cl)N(C)C1 [CLINDAMYCIN]
- MNTC [2]: >5000 µM
- MNTC [8]: 1000 µM
- MNTC [3]: 1000 µM

Structure (SMILES): Cc1c(C(=O)O)c(O)cc2c1C(=O)c1c(O)c([C@@H]3O[C@H](CO)[C@@H](O)[C@H](O)[C@H]3O)c(O)c(O)c1C2=O [CARMINIC ACID]
- IC50 [4]: 1770 µM
- MNTC [1]: >5000 µM
- IC50 [5]: 3730 µM
- MNTC [2]: 2500 µM
- Ratio [6]: 0.93
- IC50 [7]: 1650 µM
- MNTC [3]: 2200 µM

Structure (SMILES): O=c1[nH]cc(F)c(=O)[nH]1 [FLUOROURACIL]
- IC50 [4]: 85 µM
- MNTC [1]: 40 µM
- MNTC [2]: 100 µM
- Ratio [6]: 0.09
- IC50 [7]: 8 µM
